Where a name gives a salt, the structure may show the parent alone. Read-outs that look alike come from different tables or passages of the source.
Key:
[1] = tested on: Diabetic Neuropathy; conditions: literature values; Tramadol Hydrochloride 400 mg/day (Sindrup 1999), Gabapentin 3600 mg/day (Marchettini 2004); cited from earlier work
[2] = tested on: Fibromyalgia; conditions: literature values; Tramadol Hydrochloride 400 mg/day (Biasi 1998; Russell 2000), Gabapentin 3600 mg/day (Lesley 2007); cited from earlier work
[3] = tested on: Diabetic Neuropathy; assay: Pain relief in diabetic neuropathy patients (Table 1); assay type: in vivo, human; conditions: individual components at the doses present in TLI-0326 (40.4, 100, 200 mg/day); would have very little effect
From the text: (§1) The synergistic effect of the combination can further be appreciated using Table 1.

[4] = tested on: Fibromyalgia; assay: Pain relief in fibromyalgia patients (Table 1); assay type: in vivo, human; conditions: individual components at the doses present in TLI-0326 (40.4, 100, 200 mg/day); would have very little effect
From the text: as §1

[5] = tested on: α2δ subunit of voltage-gated calcium channels; conditions: cited from earlier work
[6] = tested on: neuropathy-induced allodynia; conditions: in vivo; cited from earlier work
[7] = tested on: pain; conditions: single oral dose of tramadol 100 mg; cited from earlier work
[8] = tested on: diabetic neuropathy and fibromyalgia; assay: Pain relief in patients with diabetic neuropathy and fibromyalgia; assay type: in vivo, human; conditions: 400 mg of tramadol per day
From the text: In certain preferred embodiments, the invention is directed in part to synergistic combinations of dextromethorphan or other NMDA receptor antagonist in an amount sufficient to render a therapeutic effect together with an anticonvulsant and/or a tricyclic anti-depressant and tramadol or its analog, such that an analgesic effect is attained which is at least about 5 (and preferably at least about 10) times greater than that obtained with the dose of tramadol or its analog alone. This is exemplified by the apparent fact that patients with diabetic neuropathy and fibromyalgia, who could not get even 30-40% reduction in pain even with the administration of 400 mg of tramadol per day, can have shown 90-100% pain relief with the inventive composition containing 35 mg of tramadol, 45 mg of dextromethorphan and 90 mg of gabapentin over a period of 12-16 hours.
as §1

[9] = cited from earlier work
[10] = target: μ-opiate receptor (Homo sapiens, UniProt P35372); conditions: cited from earlier work
μ-opiate receptor, sequence (P35372 whole entry, species assumed): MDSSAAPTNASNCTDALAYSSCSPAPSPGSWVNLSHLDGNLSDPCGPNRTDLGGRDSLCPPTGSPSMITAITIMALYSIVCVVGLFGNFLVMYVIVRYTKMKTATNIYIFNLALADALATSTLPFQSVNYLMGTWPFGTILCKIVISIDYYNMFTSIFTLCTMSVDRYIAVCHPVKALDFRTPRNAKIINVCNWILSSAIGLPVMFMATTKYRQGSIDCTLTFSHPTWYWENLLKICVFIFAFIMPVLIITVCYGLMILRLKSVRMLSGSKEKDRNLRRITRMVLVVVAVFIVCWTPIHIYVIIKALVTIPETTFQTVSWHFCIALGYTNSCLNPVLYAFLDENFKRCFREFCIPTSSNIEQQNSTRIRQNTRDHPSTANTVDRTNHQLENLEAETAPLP

[11] = tested on: postherpetic neuralgia; conditions: cited from earlier work
[12] = diabetic peripheral neuropathy trials; cited from earlier work
[13] = fibromyalgia trials, cited from earlier work
[14] = tested on: post-operative pain; conditions: third molar surgery; cited from earlier work
[15] = tested on: pain; conditions: relative to tramadol; cited from earlier work
[16] = tested on: painful diabetic neuropathy; conditions: oral; cited from earlier work
[17] = tested on: postherpetic neuralgia; conditions: oral; cited from earlier work
[18] = tested on: central poststroke pain; conditions: 10 of 15 patients; cited from earlier work
[19] = rats, i.v. administration; cited from earlier work
[20] = tested on: uptake of dopamine; conditions: cited from earlier work
[21] = tested on: a or β adrenergic, muscarinic, histaminergic, and dopaminergic receptors; conditions: cited from earlier work
[22] = cited from earlier work; remark: listed apart in the source
[23] = patients with epilepsy; cited from earlier work

SMILES: COc1cccc(C2(O)CCCCC2CN(C)C)c1 (stereo not drawn) [Tramadol Hydrochloride]
- Pain Relief (percent of reduction in pain) Diabetic Neuropathy [1]: <35%
- Pain Relief (percent of reduction in pain) Fibromyalgia [2]: <30%
- Pain Relief (percent of reduction in pain) Diabetic Neuropathy [3]: <10%
- Pain Relief (percent of reduction in pain) Fibromyalgia [4]: <10%

SMILES: C[C@@H]1CCC[C@](CN)(CC(=O)O)C1 [(1R,3R)3-MeGBP]
- IC50 [5]: > 10000 nM
- reversal of neuropathy-induced allodynia [6]: ineffective

SMILES: COc1cccc(C2(O)CCCCC2CN(C)C)c1 (racemic) [tramadol, (+/−)-trans (RR,SS)-2-[(di-methylamino)methyl]-1-(3-methoxyphenyl)cyclohexanol]
- duration of the analgesic effect [7]: about 6 hours
- reduction in pain [8]: 30-40%
- accumulation during multiple dose treatment ([9]; multiple dose treatment with tramadol): approximately 2 fold
- bioavailability ([9]; oral administration): 68%
- time to peak serum concentrations ([9]; oral administration): ≤ 2 h
- half-life ([9]; single oral dose of 100 mg tramadol): 5.1 h
- affinity for opiate receptors, fold less than codeine ([10]; relative to codeine): 10 fold
- affinity for opiate receptors, fold less than d-propoxyphene ([10]; relative to d-propoxyphene): 100 fold
- affinity for opiate receptors relative to dextromethorphan ([10]; relative to dextromethorphan): equivalent
- affinity for opiate receptors, fold less than morphine ([10]; relative to morphine): 6,000 fold

SMILES: O=S(=O)([O-])[O-].[Mg+2] [Magnesium (present as magnesium sulfate)]
- pain scores compared with placebo ([11]; 30 mg kg-1 i.v., at 20 and 30 min (P=0.016), not at 10 min): significantly lower
- safety, tolerability and efficacy ([11]; i.v., postherpetic neuralgia): safe, well-tolerated and effective
- Pain Relief (percent of reduction in pain) Diabetic Neuropathy [3]: <10%
- Pain Relief (percent of reduction in pain) Fibromyalgia [4]: <10%

SMILES: CC(C)C[C@H](CN)CC(=O)O [pregabalin]
- patients discontinued prematurely due to adverse reactions [12]: 9%
- withdrawal due to asthenia, confusion, and peripheral edema (each) [12]: approximately 1%
- patients discontinued prematurely due to adverse reactions ([13]; 150-600 mg/day): 19%
- withdrawal due to fatigue, headache, balance disorder, and weight increased (each) [13]: approximately 1%

SMILES: N[C@@H](Cc1c[nH]c2ccccc12)C(=O)O [tryptophan]
- effect on post-operative pain or consumption of other analgesics [14]: no effect

SMILES: CN(C)C[C@H]1CCCC[C@]1(O)c1cccc(O)c1 [O-desmethyltramadol (M1), O-desmethyltramadol]
- analgesic potency relative to parent drug [15]: at least twice the analgesic potency of the parent drug

SMILES: CN(C)CCC=C1c2ccccc2CCc2ccccc21 [amitriptyline]
- share of patients with good or moderate response [16]: three-quarters
- share of patients with good or moderate response [17]: about two-thirds
- patients with superior relief compared with placebo [18]: 67%

SMILES: COc1cc(CNC(=O)CCCCC=CC(C)C)ccc1O [capsaicin, 8-methyl-N-vanillyl-6-nonenamide]
- time to distribution to brain, spinal cord, liver and blood [19]: ≤ 20 min

SMILES: CCN(CC)C(=O)C1(c2ccccc2)CC1CN.Cl (stereo not drawn) [milnacipran, 1-phenyl-1-diethyl-aminocarbonyl-2-aminomethyl-cyclopropane (Z) hydrochloride]
- effect on uptake of dopamine [20]: does not affect
- affinity for receptors [21]: no affinity
- adverse event: constipation ([22]; 100 mg/day twice daily): 10%
- adverse event: headache ([22]; 100 mg/day twice daily): 9%
- adverse event: abdominal pain ([22]; 200 mg/day twice daily): 7%
- adverse event: headache ([22]; 200 mg/day twice daily): 8%
- adverse event: nausea and vomiting ([22]; 200 mg/day twice daily): 7%

SMILES: C[C@@H]1CCC[C@@](CN)(CC(=O)O)C1 [(1S,3R)3-MeGBP]
- IC50 [5]: 42 nM
- reversal of neuropathy-induced allodynia [6]: effectively reversed

SMILES: NCC1(CC(=O)O)CCCCC1 [Gabapentin]
- Pain Relief (percent of reduction in pain) Diabetic Neuropathy [1]: <50%
- Pain Relief (percent of reduction in pain) Fibromyalgia [2]: <50%
- steady-state predose (Cmin) concentration in cerebrospinal fluid as share of plasma concentration [23]: approximately 20%

From patent publication US20130189354A1, “Novel Pharmaceutical Compositions for Treating Chronic Pain and Pain Associated with Neuropathy” (priority 2010, published 2013)
